Test results: patent US20250296960A1, “PEPTIDE COMPOSITIONS AND METHODS OF USE THEREOF” (priority 2022, published 2025)
Where two headings read alike, the source gives them in different places. Numbered stars: 1 amine (or outer) side, 2 acyl side, 3 side chain; on linkers, the order of the positions; unused ones are H or OH. Square brackets hold non-standard residues; d marks the D form. Side chains are listed from the residue outwards. Peptide text beside a SMILES is read from it. * marks the point of attachment. Biotin = O=C1N[C@H]2[C@H](CS[C@H]2CCCCC(=O)*)N1; C18 diacid = O=C(O)CCCCCCCCCCCCCCCCC(=O)*; γGlu = O=C(O)[C@H](CCC(=O)[*:2])N[*:1]; AEEA = NCCOCCOCC(=O)O; Aib = CC(C)(N)C(=O)O

Columns and labels:
[1] = In vitro enzymatic stability against FaSSIF/P (pancreatin in FaSSIF, pH 6.5); type: in vitro ADME; conditions: simulated gi fluid, pH 6.5, Half-life (min)
Procedure: This study was conducted to determine the enzymatic stability of SEQ ID NOs. 77, 86, 87, 89, 90, and 91 after biotinylation in artificial intestinal environment. The test samples were prepared by mixing stock solutions of peptide and pancreatin dissolved in FaSSIF solution (pH 6.5) in a weight ratio of 25:1. The test samples were incubated at 37° C. for 120 min. The sampling from test samples was proceeded at the predetermined time points (10, 30, 60, and 120 min) and stopped by 10% TFA solution.
(§1) Analytical HPLC was performed to determine the remaining amount on an ACQUITY Premier system (Waters, USA) with an ACQUITY CSH C18 column (Waters, USA) at 35° C. using 0.1% TFA in water and acetonitrile. The remaining amount was determined as a percentage of the peak area at the sampling time point relative to the peak area of the initial sample.
For the stability against FaSSIF/P, the test samples were prepared by mixing stock solutions of peptide and pancreatin dissolved in FaSSIF solution (pH 6.5) in a weight ratio of 19:1. The test samples were incubated at 37° C. for 120 min. The sampling from test samples was proceeded at the predetermined time points (10, 30, 60, and 120 min) and stopped by 10% TFA solution.

[2] = rat, in vivo, iv
Procedure: This study was conducted to evaluate the PK profile of SEQ ID NOs. 77, 102, and 103 and compare the PK profile by the different lipidated structure of peptides in rat plasma by IV administration. SEQ ID NOs. The peptides were delivered at 0.02% PS80 in PBS and dosing volume was 2.5 mL/kg.
The animals were not fasted prior to dosing. 0.2-0.4 mL of whole blood was taken from vein at each time point (0.167, 0.5, 1, 2, 4, 6, 8, 24, and 48 hr after administration) and transferred into the heparin coated tube.
The resulting plasma of 0.1-0.2 mL obtained by centrifugation of the blood samples was transferred into the tube and stored at −70° C. until analysis. The concentrations of peptides in plasma were determined by LC-MS/MS analysis.

[3] = type: in vitro ADME; conditions: pH 7.8
Procedure: For the stability against trypsin, the test samples were prepared by mixing stock solutions of peptide and trypsin dissolved in 50 mM PBS (pH 7.8) containing 0.02% PS80 in a weight ratio of 10:1. The test samples were incubated at 37° C. for 180 min. The sampling from test samples was proceeded at the predetermined time points (10, 30, 60, 90, 120, and 180 min) and stopped by 10% TFA solution.
as §1

human GCGR = target: T1, human GCGR (Homo sapiens, UniProt P47871); experiment: cAMP assay (HitHunter cAMP) in GCGR-expressing CHO-K1 cells (GCGR+ cells); type: cell-based; conditions: Table 31
T1 construct: host or cells: CHO-K1
Outline: (§2)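 Luminescent cAMP read-out: after 30 min peptide stimulation at 37 °C in cAMP assay buffer, receptor-expressing CHO-K1 cells (seeded 7×10^3/well the night before) received antibody and detection reagents for 1 h, then Solution A for 3 h, at room temperature in the dark.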

[4] = Body weight loss in high fat diet (HFD) mice, 2 weeks; type: in vivo; conditions: 20 nmol/kg s.c. Q2D
Procedure: This study was conducted to confirm the body weight loss effect and select the peptides to be evaluated in high fat diet (HFD) treated mouse, which is widely used as experimental animal model in obesity and diabetes studies. SEQ ID NOs. The peptides were delivered at 0.02% PS80 in PBS and dosing volume was 10 mL/kg. Body weight changes, blood glucose, and food intake were monitored Q2D. Animals were fasted at least 4 hours prior to blood glucose measurement.

human GIPR = target: T2, human GIPR (Homo sapiens, UniProt P48546); experiment: cAMP assay (HitHunter cAMP) in GIPR-expressing CHO-K1 cells (GIPR+ cells); type: cell-based; conditions: Table 31
T2 construct: host or cells: CHO-K1
T2 sequence (P48546 22-466): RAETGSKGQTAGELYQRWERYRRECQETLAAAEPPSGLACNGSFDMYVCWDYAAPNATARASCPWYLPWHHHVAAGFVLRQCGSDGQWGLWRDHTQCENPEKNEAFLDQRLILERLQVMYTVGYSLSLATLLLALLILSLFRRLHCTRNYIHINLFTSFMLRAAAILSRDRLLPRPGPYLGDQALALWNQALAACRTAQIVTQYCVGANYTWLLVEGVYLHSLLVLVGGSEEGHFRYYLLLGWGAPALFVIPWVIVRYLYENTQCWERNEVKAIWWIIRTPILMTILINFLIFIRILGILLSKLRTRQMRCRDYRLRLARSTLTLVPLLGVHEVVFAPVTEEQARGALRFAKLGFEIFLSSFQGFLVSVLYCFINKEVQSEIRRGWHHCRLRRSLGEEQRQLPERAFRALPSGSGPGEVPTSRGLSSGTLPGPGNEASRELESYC
Outline: as §2

human GLP-1R = target: T3, human GLP-1R (Homo sapiens, UniProt P43220); experiment: cAMP assay (HitHunter cAMP) in GLP-1R-expressing CHO-K1 cells (GLP-1R+ cells); type: cell-based; conditions: Table 31
T3 construct: host or cells: CHO-K1
Outline: as §2

[5] = Intestinal absorption / PK after intraduodenal administration of oral formulation in rats, serum LC-MS/MS; conditions: rat, in vivo
Procedure: This study was conducted to evaluate the intestinal absorption of peptides following enteral administration of oral pharmaceutical formulations. The pharmaceutical formulation was administered in a form of suspensions by intraduodenal (ID) injection in rats. SEQ ID_87, 89 and 90 was accurately weighed and dissolved in 10 mM PBS containing polysorbate 80 (pH 7.4, vehicle I). The mixture was vortexed for 5 min to get a clear solution. Then, 2.5 mL of vehicle was added to the mixture and vortexed for 30 min to get homogenous opaque suspension. The composition of Vehicle II was sodium chenodeoxycholate, and propyl gallate in polysorbate 80 in PBS. The animals were not fasted prior to dosing. 0.2˜ 0.4 mL of whole blood was taken from vein at each time point (0, 0.167, 0.5, 1, 2, 4, 8, 24, and 48 hrs after IV or ID administration). The collected whole blood was incubated at room temperature for 20 min and tubes were centrifugated at 13,000 rpm for 10 min at 4° C. The resulting serum 0.1˜ 0.2 mL was transferred into the tube and stored at −70° C. until analysis. The concentrations of peptides in serum were determined by LC-MS/MS analysis. PK parameters were analyzed by non-compartmental analysis using Phoenix WinNonlin 5.0.1. software (Pharsight Corporation, Mountain View, CA, USA).

T1 sequence (P47871 26-477): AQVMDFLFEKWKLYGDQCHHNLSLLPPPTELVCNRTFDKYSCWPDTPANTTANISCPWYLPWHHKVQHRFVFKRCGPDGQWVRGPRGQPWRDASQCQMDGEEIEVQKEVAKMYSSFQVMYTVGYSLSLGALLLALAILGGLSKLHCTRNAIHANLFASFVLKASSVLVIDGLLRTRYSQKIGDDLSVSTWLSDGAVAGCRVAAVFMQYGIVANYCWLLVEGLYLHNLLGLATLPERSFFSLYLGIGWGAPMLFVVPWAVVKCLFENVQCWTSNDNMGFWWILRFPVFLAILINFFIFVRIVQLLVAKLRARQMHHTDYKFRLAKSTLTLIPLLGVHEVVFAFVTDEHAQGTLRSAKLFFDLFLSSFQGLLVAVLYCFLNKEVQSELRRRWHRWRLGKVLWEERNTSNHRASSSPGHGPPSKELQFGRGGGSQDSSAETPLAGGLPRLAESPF
T3 sequence (P43220 24-463): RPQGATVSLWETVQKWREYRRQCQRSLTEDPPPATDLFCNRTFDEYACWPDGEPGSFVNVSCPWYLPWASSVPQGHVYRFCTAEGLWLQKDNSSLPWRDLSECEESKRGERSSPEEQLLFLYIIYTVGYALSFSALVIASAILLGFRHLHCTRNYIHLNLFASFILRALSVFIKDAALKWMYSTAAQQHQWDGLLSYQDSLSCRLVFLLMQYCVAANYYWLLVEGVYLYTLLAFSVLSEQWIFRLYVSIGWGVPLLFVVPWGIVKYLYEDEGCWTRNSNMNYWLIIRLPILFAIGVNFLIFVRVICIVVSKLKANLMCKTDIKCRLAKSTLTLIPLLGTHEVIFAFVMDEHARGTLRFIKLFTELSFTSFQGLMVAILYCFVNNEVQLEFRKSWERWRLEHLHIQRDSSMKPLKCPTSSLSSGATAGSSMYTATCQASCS

## CC[C@H](C)[C@H](NC(=O)[C@H](CC(C)C)NC(=O)[C@H](Cc1c[nH]c2ccccc12)NC(=O)[C@H](CC(C)C)NC(=O)[C@@H](NC(=O)[C@H](Cc1ccccc1)NC(=O)[C@H](CC(=O)O)NC(=O)CNC(=O)[C@H](C)NC(=O)[C@H](Cc1c[nH]c2ccccc12)NC(=O)[C@@H]1CCCN1C(=O)CNC(=O)[C@H](CC(=O)O)NC(=O)[C@H](CC(C)C)NC(=O)[C@H](Cc1ccc(O)cc1)NC(=O)[C@H](Cc1c[nH]c2ccccc12)NC(=O)[C@H](CO)NC(=O)[C@H](CCCCN)NC(=O)[C@H](CC(=O)O)NC(=O)[C@H](CO)NC(=O)[C@@H](NC(=O)[C@H](Cc1ccccc1)NC(=O)[C@@H](NC(=O)CNC(=O)[C@H](CCC(N)=O)NC(=O)C(C)(C)NC(=O)[C@@H](N)Cc1c[nH]cn1)[C@@H](C)O)[C@@H](C)O)C(C)C)C(=O)N[C@@H](CCC(=O)O)C(=O)NCC(=O)NCC(=O)N1CCC[C@H]1C(=O)N[C@@H](CO)C(=O)N[C@@H](CO)C(=O)NCC(=O)N[C@@H](C)C(=O)N1CCC[C@H]1C(=O)N1CCC[C@H]1C(=O)N1CCC[C@H]1C(=O)N[C@@H](CO)C(=O)N[C@@H](CS)C(=O)O [compound 77, HAibQGT FTSDKSWYLDGPWAGDFVLWLIEGGPSSGAPPPSC] (H-H[Aib]QGTFTSDKSWYLDGPWAGDFVLWLIEGGPSSGAPPPSC-OH; N-terminus and C-terminus assumed)
[1]
  half-life: 39.4 min
[1]; FaSSIF/P
  half-life: 36.9 min
[2]
  PK parameter values (half-life and AUCinf/dose), comparison in words: significantly low
[2]; 100 nmol/kg
  AUCinf/dose: 156.76 ± 27.16 kg·h/L
  half-life: 427 ± 24 min
[3]
  half-life: 92.5 min

## CSCC[C@H](NC(=O)[C@H](CCCCNC(=O)CCCC[C@@H]1SC[C@@H]2NC(=O)N[C@@H]21)NC(=O)[C@H](CC(=O)O)NC(=O)[C@H](CC(C)C)NC(=O)[C@H](CC(C)C)NC(=O)[C@H](CCCCNC(=O)COCCOCCNC(=O)COCCOCCNC(=O)CC[C@H](NC(=O)CCCCCCCCCCCCCCCCC(=O)O)C(=O)O)NC(=O)[C@H](CO)NC(=O)[C@H](Cc1ccc(O)cc1)NC(=O)[C@H](CC(=O)O)NC(=O)[C@H](CO)NC(=O)[C@@H](NC(=O)[C@H](Cc1ccccc1)NC(=O)[C@@H](NC(=O)CNC(=O)[C@H](CCC(N)=O)NC(=O)C(C)(C)NC(=O)[C@@H](N)Cc1ccc(O)cc1)[C@@H](C)O)[C@@H](C)O)C(=O)N[C@@H](CCSC)C(=O)N[C@@H](CCC(N)=O)C(=O)N[C@@H](CCCNC(=N)N)C(=O)N[C@@H](CC(=O)O)C(=O)N[C@@H](Cc1ccccc1)C(=O)N[C@H](C(=O)N[C@@H](CCC(N)=O)C(=O)N[C@@H](Cc1c[nH]c2ccccc12)C(=O)N[C@@H](CC(C)C)C(=O)N[C@@H](CC(C)C)C(=O)N[C@@H](CCC(=O)O)C(=O)NCC(=O)NCC(=O)N1CCC[C@H]1C(=O)N[C@@H](CO)C(=O)N[C@@H](CO)C(=O)NCC(=O)N[C@@H](C)C(=O)N1CCC[C@H]1C(=O)N1CCC[C@H]1C(=O)N1CCC[C@H]1C(=O)N[C@@H](CO)C(N)=O)C(C)C [compound 86] (H-Y[Aib]QGTFTSDYSK([AEEA-AEEA-γGlu-C18 diacid])LLDK(Biotin)MMQRDFVQWLLEGGPSSGAPPPS-NH2; N-terminus and C-terminus assumed)
[1]
  half-life: 25.4 min
Human GCGR
  Ratio vs. GLP-1R, GCGR: 157
  Relative % to native ligand, GCGR: 142%
[4]
  body weight loss effect compared to SEQ ID NO. 77, in words: inferior
Human GIPR
  Ratio vs. GLP-1R, GIPR: 639
  Relative % to native ligand, GIPR: 575%
Human GLP-1R
  Ratio vs. GLP-1R, GLP-1R: 100
  Relative % to native ligand, GLP-1R: 90%

## CSCC[C@H](NC(=O)[C@H](CCCCNC(=O)CCCC[C@@H]1SC[C@@H]2NC(=O)N[C@@H]21)NC(=O)[C@H](Cc1ccc(O)cc1)NC(=O)[C@H](CC(=O)O)NC(=O)[C@H](CC(C)C)NC(=O)[C@H](CC(C)C)NC(=O)[C@H](CCCCNC(=O)COCCOCCNC(=O)COCCOCCNC(=O)CC[C@H](NC(=O)CCCCCCCCCCCCCCCCC(=O)O)C(=O)O)NC(=O)[C@H](CO)NC(=O)[C@H](Cc1ccc(O)cc1)NC(=O)[C@H](CC(=O)O)NC(=O)[C@H](CO)NC(=O)[C@@H](NC(=O)[C@H](Cc1ccccc1)NC(=O)[C@@H](NC(=O)CNC(=O)[C@H](CCC(N)=O)NC(=O)C(C)(C)NC(=O)[C@@H](N)Cc1ccc(O)cc1)[C@@H](C)O)[C@@H](C)O)C(=O)N[C@@H](CCC(N)=O)C(=O)N[C@@H](CCCNC(=N)N)C(=O)N[C@@H](CC(=O)O)C(=O)N[C@@H](Cc1ccccc1)C(=O)N[C@H](C(=O)N[C@@H](CCC(N)=O)C(=O)N[C@@H](Cc1c[nH]c2ccccc12)C(=O)N[C@@H](CC(C)C)C(=O)N[C@@H](CC(C)C)C(=O)N[C@@H](CCC(=O)O)C(=O)NCC(=O)NCC(=O)N1CCC[C@H]1C(=O)N[C@@H](CO)C(=O)N[C@@H](CO)C(=O)NCC(=O)N[C@@H](C)C(=O)N1CCC[C@H]1C(=O)N1CCC[C@H]1C(=O)N1CCC[C@H]1C(=O)N[C@@H](CO)C(N)=O)C(C)C [compound 87] (H-Y[Aib]QGTFTSDYSK([AEEA-AEEA-γGlu-C18 diacid])LLDYK(Biotin)MQRDFVQWLLEGGPSSGAPPPS-NH2; N-terminus and C-terminus assumed)
[1]
  half-life: 16.4 min
[5]
  AUC(0-inf): 1860 ng·h/mL
  Cmax: 290 ng/mL
  half-life: 370 min
  time at which Cmax was reached: 0.25 h
Human GCGR
  Ratio vs. GLP-1R, GCGR: 60
  Relative % to native ligand, GCGR: 66%
[4]
  body weight loss effect compared to SEQ ID NO. 77, in words: inferior
Human GIPR
  Ratio vs. GLP-1R, GIPR: 281
  Relative % to native ligand, GIPR: 308%
Human GLP-1R
  Ratio vs. GLP-1R, GLP-1R: 100
  Relative % to native ligand, GLP-1R: 110%
